Experimental data: publication PMC4766415 (Nature Communications, 2016)
Read-outs that look alike come from different tables or passages of the source.

Columns and labels:
AC16 cells = test: TTR-induced cytotoxicity in AC16 cells, resazurin reduction assay; format: cell-based, human; details: 16 μM compound, 8 μM TTR; 24 h
Source text: Error bars indicate s.e.m. […] Error bars indicate s.e.m. (n=4). […] Error bars indicate s.e.m. (n=3).

L55P-TTR = test system: T1, L55P-TTR; test: Dot-blot filter assay of L55P-TTR aggregation secreted by RN22 cells; format: cell-based, human; details: 1 μM in the medium
T1 construct: TTR is composed of four identical 127 amino-acid residue β-sheet-rich subunits; expressed in transfected cells; host or cells: rat Schwannoma RN22 cells, metallothionein promoter, ZnSO4 induction
Description: The extent of extracellular L55P-TTR aggregation was monitored by a filter trap assay followed by TTR immunodetection.
The rat Schwannoma cell line RN22 stably co-transfected with TTR L55P cDNA under the control of the metallothionein promoter was used to test the inhibitors of TTR aggregation as in ref. [51]. […] TTR in the medium was quantified by ELISA, and the volume of medium corresponding to 500 ng of TTR was applied on to a 0.2-μm pore cellulose acetate membrane filter (Schleicher and Schuell) using a manifold system (Gibco BRL) to separate soluble proteins from aggregates. […] Detection was performed with ECL (GE Healthcare). Dot blot quantification was performed using the ImageQuant program. The percentage of aggregation inhibition was calculated as 100 × ((Control—Treated)/Control). Experiments were repeated three times in triplicate.

TTR [1] = test system: TTR; design: method as in Vyndaqel European Public Assessment Report (EMA/815723/2011); details: single dose of 120 mg; ref Vyndaqel European Public Assessment Report (EMA/815723/2011); cited from earlier work
[2] = test system: T2, TTR in human plasma (WT-TTR and V30M-TTR); test: [125I]T4 competition in human plasma, native gel electrophoresis; format: binding; details: 1 mM; plasma from normal (WT-TTR) and V30M-TTR FAP patient; 1 h RT
T2 construct: human plasma from a normal (WT-TTR) and from an FAP patient carrying the V30M-TTR mutation; from tissue; host or cells: human plasma of normal donors and of V30M-TTR carriers
Source text: Error bars indicate s.e.m. (n=3). […] Error bars indicate s.e.m. (n=3).

Y78F-TTR = Y78F-TTR (Homo sapiens, UniProt P02766, Y98F); test: Y78F-TTR aggregation inhibition, turbidity at 340 nm, pH 4.2
[3] = design: method as in Vyndaqel European Public Assessment Report (EMA/815723/2011); details: single dose of 120 mg; ref Vyndaqel European Public Assessment Report (EMA/815723/2011); cited from earlier work
[4] = test system: WT and V30M-TTR tetramers in plasma; test: TTR tetramer stability in human plasma by IEF under semi-denaturing conditions; format: biochemical; details: 1.4 mM, overnight 4 °C, 4 M urea
V122I-TTR = molecular target: V122I-TTR; design: method as in PMID 23716704; details: subunit exchange assays; cited from earlier work
[5] = test system: Rat Schwannoma cells (RN22); test: Caspase-3 activation by Y78F-TTR oligomers in RN22 cells; details: Y78F-TTR aggregates 2 μM formed with 20 μM compound; 24 h exposure
FAP = test system: FAP; design: method as in PMID 24368466; details: patients with FAP, 2 years treatment; cited from earlier work
[6] = design: method as in PMID 17107884; details: cited from earlier work
TTR [7] = molecular target: TTR; design: method as in PMID 14968122; details: cited from earlier work

SMILES | effect on WT-TTR and V122I-TTR induced reduction in cell viability (AC16 cells) | reduction of L55P-TTR aggregation compared with untreated cells (L55P-TTR) [%] | average percent stabilization of TTR (TTR [1]) [%] | radioactive T4-TTR band in the presence of compound [2] | RA (%): percent reduction of TTR aggregation rate at high inhibitor concentration (Y78F-TTR) [%] | average concentration in plasma at Tmax [3] [µM] | TTR tetramer stabilization in plasma [4] | Kd2 estimate (V122I-TTR) | reduction in Caspase-3 activation [5] | effect on progression of neurological impairment (FAP) | concentration in serum after oral administration [6] [µM] | Kd (TTR [7]; read-out: Kd1) [nM] | Kd (TTR [7]; read-out: Kd2) [nM]
O=C(O)c1ccc2nc(-c3cc(Cl)cc(Cl)c3)oc2c1 [tafamidis] | rescued this toxic effect | ~90 | 189 | no longer visible | 59.57 | 14.4 | stabilized WT and V30M-TTR tetramers in plasma | in the μM range | 11.6%±4.0 |  |  |  | 
O=C(O)c1cc(-c2ccc(F)cc2F)ccc1O [diflunisal] |  |  |  |  |  |  |  |  |  | reduced the rate of progression of neurological impairment | > 140 | 75 | 1100
